From patent publication US11191746B2, “Composition for inhibiting a growth of cancer stem cells comprising ciclesonide” (JEJU NATIONAL UNIVERSITY INDUSTRY-ACADEMIC COOPERATION …, priority 2016, dated 2021)

Experiments:
[1] = system: MCF-7 cells; assay: Breast cancer cell proliferation assay (MTS); assay type: cell-based, human; details: MCF-7, 48 hours after treatment
Protocol: (§1) The proliferation rates of MCF-7 cells and MDA-MB-231 cells were measured using a CellTiter 96® aqueous one solution cell proliferation kit. The MCF-7 cells or the MDA-MB-231 cells were cultured in a 96-well plate for 48 hours in the presence of ciclesonide at concentrations of 0 μM, 5 μM, 10 μM, 20 μM, 40 μM, and 80 μM. In accordance with the manufacturer's protocol, absorbance at 490 nm was determined using a 96-well plate reader (Dynex Revelation, Dynex Ltd., Billingshurst, UK). Respective data was determined by measuring three sets.

[2] = system: MDA-MB-231 cells; assay: Breast cancer cell proliferation assay (MTS); assay type: cell-based, human; details: MDA-MB-231, 48 hours after treatment
Protocol: as §1

[3] = system: A549 cells; assay: Apoptosis analysis by fluorescence staining (Hoechst 33258); assay type: cell-based, human; details: A549, 30 μM, 24 hours
Protocol: (§2) MDA-MB-231 cells were treated with 20 μM ciclesonide or A549 cells were treated with 30 μM ciclesonide, for 24 hours and the cells were incubated in 10 mg/ml of a Hoechst 33258 solution at 37° C. for 30 minutes. Subsequently, the cells were observed using a fluorescence microscope.

[4] = system: MDA-MB-231 cells; assay: as above; assay type: cell-based, human; details: MDA-MB-231, 20 μM, 24 hours
Protocol: as §2

[5] = system: IL-6; assay: Human inflammatory cytokine assay (CBA), mammosphere culture solution; assay type: cell-based; details: MDA-MB-231 mammosphere culture solution
Protocol: (§3) Mixed capture beads were vortexed and 50 μl of beads were added to assay tubes. 50 μl of human inflammatory cytokine standard and the cultured tumorsphere solution were added to the assay tubes, and then mixed with a cytokine PE solution. After 3 hours, the mixed solution was washed and analyzed by flow cytometry (Accuri C6, BD, San Diego, Calif., USA).

[6] = system: IL-8; assay: as above; assay type: cell-based; details: MDA-MB-231 mammosphere culture solution
Protocol: as §3

[7] = system: A549 cells; assay: Lung cancer cell proliferation assay (MTS); assay type: cell-based, human; details: A549, 48 hours after treatment
Protocol: as §1
An experiment was performed in the same manner as in Example 10-1, except that A549 cells were used as lung cancer cells and treated with ciclesonide at concentrations of 0 μM, 10 μM, 20 μM, 40 μM, 80 μM, and 100 μM.

[8] = system: A549 cell-derived tumorspheres; assay: Tumorsphere formation; assay type: cell-based, human; details: A549 primary tumorspheres
Protocol: Human lung cancer cells, A549, were cultured under the same culture conditions as those for the breast cancer cells of Example 2-1. To establish primary tumorspheres, single cell-suspended A549 cells were inoculated into ultra-low attachment 6-well plates containing 2 ml of Cancer Stem Premium medium (ProMab Biotechnologies Inc, Richmond, Calif., USA) at a density of 5×10^4 cells/well. The cells were incubated in a 5% CO2 incubator at 37° C. for 10 days.
Lung cancer tumorspheres were counted in the same manner as in Example 3-1, and for the analysis of tumorsphere formation, tumorsphere formation efficiency (TFE, %) was determined by the following equation: TFE (%)=number of tumorspheres per well/total number of plated cells per well×100.

[9] = system: A549 cells; assay: ALDEFLUOR analysis, lung cancer cells; assay type: cell-based, human; details: 24 hours
Protocol: An ALDEFLUOR analysis system provides a novel approach to the identification, evaluation, and isolation of CSCs based on the activity of aldehyde dehydrogenase (ALDH). BODIPY-aminoacetaldehyde as an active reagent was added to breast cancer cells or lung cancer cells, and converted into fluorescent BODIPY-aminoacetate by ALDH. Diethylaminobenzaldehyde (DEAB), which is an ALDH inhibitor, was used as a negative control. MCF-7 cells or A549 cells were treated with 10 μM or 20 μM ciclesonide for 24 hours, and the proportion of ALDH-positive cells was analyzed by ALDEFLUOR assay. ALDH-positive and negative cells were sorted by C6 Accuri flow cytometry (BD Bioscience).

[10] = system: C-myc; assay: Real-time PCR of CSC markers in tumorspheres; assay type: cell-based, human; details: RT-PCR, vs group not treated
Protocol: (§4) The levels of transcripts were measured with a One Step SYBR PrimeScript RT-PCR kit (Takara, Tokyo, Japan) using SYBR green as a double-stranded DNA-specific dye in accordance with the manufacturer's protocol. One-step RT-PCR was performed on 1 μg of total RNA, 10 μl of 2× One Step SYBR RT-PCR Buffer IV, and 1 μl of PrimeScript 1 step Enzyme Mix II using PCR forward and reverse primers of each of CD44, NANOG, OCT4, C-myc, Sox2, Snail, and β-actin at a final volume of 20 μl per reaction.
(§5) The relative expression level of mRNA of the target gene was calculated using a comparative CT method. At least three independent PCR procedures were performed in accordance with statistical analysis. PCR products were normalized with the […] gene as an internal control.

[11] = system: Nanog; assay: Real-time PCR of CSC markers in tumorspheres; assay type: cell-based, human; details: RT-PCR, vs group not treated
Protocol: as §4, §5

[12] = system: Snail; assay: Real-time PCR of CSC markers in tumorspheres; assay type: cell-based, human; details: RT-PCR, vs group not treated
Protocol: as §4, §5

[13] = system: Sox2; assay: Real-time PCR of CSC markers in tumorspheres; assay type: cell-based, human; details: RT-PCR, vs group not treated
Protocol: as §4, §5

## CC(C)C(=O)OCC(=O)[C@@]12O[C@H](C3CCCCC3)O[C@@H]1C[C@H]1[C@@H]3CCC4=CC(=O)C=C[C@]4(C)[C@H]3[C@@H](O)C[C@@]12C [ciclesonide]
[1]
  concentration at which growth of the cell line was inhibited in a concentration-dependent manner: ≥ 10 µM
[2]
  concentration at which growth of the cell line was inhibited in a concentration-dependent manner: ≥ 10 µM
[3]
  formation of apoptotic bodies: apoptotic bodies were formed
[4]
  formation of apoptotic bodies: apoptotic bodies were formed
[5]
  production level of secreted IL-6: reduced
[6]
  production level of secreted IL-8: reduced
[7]
  concentration at which growth of the cell line was inhibited in a concentration-dependent manner: ≥ 40 µM
[8]
  size of the tumorspheres: significantly reduced
[8]; 5 μM and 10 μM
  reduction of the number of tumorspheres: 90%
[9]
  proportion of ALDH-positive lung cancer cells: reduced
[10]
  expression of C-myc: reduced
[11]
  expression of Nanog: reduced
[12]
  expression of Snail: reduced
[13]
  expression of Sox2: reduced
